These results are taken from ChEMBL document CHEMBL3886836, “Amides as pim inhibitors” (2016).

Each structure is given as a SMILES string.

Test [1] addresses T1, Serine/threonine-protein kinase pim-1 (Homo sapiens, UniProt P11309). Put plainly: The phosphorylation of biotinylated-BAD (S112) peptide by full length recombinant Pim-1, Pim-2, or Pim-3 protein was detected with streptavidin:Allophycocyanin (APC) conjugate and a europium (Eu) labeled antibody directed against phosphorylated-BAD (S112). […] The fluorescence is directly proportional to the amount of phosphorylated BAD peptide present in the reaction. […] The Reaction Buffer consisted of 45 mM Hepes, pH 7.0, 15 mM NaCl, and 1 mM MgCl. The quench/detection buffer consisted of 50 mM Tris, 100 mM NaCl, 0.05% BSA, 0.1% Tween and 3 mM EDTA. Biotinylated BAD peptide (Biopeptide), 10 mM ATP (Sigma), Labeled p-BAD (S112) mAb (Cell Signalling and Perkin Elmer) [with 0.05% BSA and 2 mM DTT added] streptavidin:Allophycocyanin [Perkin Elmer]. […] Initial incubations were carried out at RT (22° C.) for 30 min for both Pim-1 and for Pim-2. Pim enzyme is added to compound in buffer, and plates are incubated of 30 min. Biotinylated BAD and ATP are added and plates are incubated for 1 h. A mixture of labeled p-BAD (S112) mAb and quench/detection buffer are added and incubated for 2 h. Fluorescence was measured by an HTRF® Envision microplate reader. (In general: In TR-FRET formats the signal depends on donor and acceptor labels being close together.)

Test [2] addresses T2, Serine/threonine-protein kinase pim-2 (Homo sapiens, UniProt Q9P1W9). Put plainly: Homogeneous Time Resolved Fluorescence Assay (HTRF): The assay for the determination of Pim activity is based on the formation of phosphorylated biotinylated-BAD peptide at the Serine 112 residue (S112) and employs HTRF® (homogeneous time resolved fluorescence) technology to detect the product in a 384-well plate format. The phosphorylation of biotinylated-BAD (S112) peptide by full length recombinant Pim-1, Pim-2, or Pim-3 protein was detected with streptavidin:Allophycocyanin (APC) conjugate and a europium (Eu) labeled antibody directed against phosphorylated-BAD (S112). Excitation of Eu by a high energy laser light (337 nm) leads to a transfer of energy to the APC molecule, and results in an emission at 665 nm. The fluorescence is directly proportional to the amount of phosphorylated BAD peptide present in the reaction. […] A reference compound was included on each assay plate [Costar 3658] in order to validate that plate; on one plate of every assay run, two additional reference compounds were included. The Reaction Buffer consisted of 45 mM Hepes, pH 7.0, 15 mM NaCl, and 1 mM MgCl. The quench/detection buffer consisted of 50 mM Tris, 100 mM NaCl, 0.05% BSA, 0.1% Tween and 3 mM EDTA. Biotinylated BAD peptide (Biopeptide), 10 mM ATP (Sigma), Labeled p-BAD (S112) mAb (Cell Signalling and Perkin Elmer) [with 0.05% BSA and 2 mM DTT added] streptavidin:Allophycocyanin [Perkin Elmer]. Final concentrations either Pim-1 enzyme [5 pM], or Pim-2 enzyme [0.5 pM], DMSO [1%], BLC BAD (S112) [0.5 μM], ATP [1.5 μM], streptavidin:Allophycocyanin [0.002 mg/mL] and biotinylated-BAD (S112) mAb [100 pM]. Initial incubations were carried out at RT (22° C.) for 30 min for both Pim-1 and for Pim-2. Pim enzyme is added to compound in buffer, and plates are incubated of 30 min. Biotinylated BAD and ATP are added and plates are incubated for 1 h. A mixture of labeled p-BAD (S112) mAb and quench/detection buffer are added and incubated for 2 h. Fluorescence was measured by an HTRF® Envision microplate reader.

Test [3] concerns the target T1, Serine/threonine-protein kinase pim-1. Kind of test: (§1) Homogeneous Time Resolved Fluorescence Assay (HTRF): The assay for the determination of Pim activity is based on the formation of phosphorylated biotinylated-BAD peptide at the Serine 112 residue (S112) and employs HTRF® (homogeneous time resolved fluorescence) technology to detect the product in a 96-well plate format. The phosphorylation of biotinylated-BAD (S112) peptide by full length recombinant Pim-1, Pim-2, or Pim-3 protein was detected with streptavidin:Allophycocyanin (APC) conjugate and a europium (Eu) labeled antibody directed against phosphorylated-BAD (S112). Excitation of Eu by a high energy laser light (337 nm) leads to a transfer of energy to the APC molecule, and results in an emission at 665 nm. The fluorescence is directly proportional to the amount of phosphorylated BAD peptide present in the reaction. […] A reference compound was included on each assay plate in order to validate that plate; on one plate of every assay run, two additional reference compounds were included. The final buffer conditions were as follows: 60 mM Hepes, pH 7.0, 0.05% BSA, 2 mM DTT. Incubations were carried out at RT (22° C.) for 2 h for Pim-1, 1 hour and 30 min for Pim-3, and 45 min for Pim-2. The reaction was stopped by the addition of 3 mM EDTA, and fluorescence was measured by an HTRF® Rubystar microplate reader.

In test [4] the target is T2, Serine/threonine-protein kinase pim-2. The test is described as §1.

Turning to `Cc1nc2cccc(-c3cc4c([nH]3)CCNC4=O)c2nc1N[C@H]1C[C@@H](N(C)C)C1`, the IC50 in test [1] amounted to 2 nM; in test [2], 4 nM.
With `CC(C)(C)Nc1ccc2cccc(-c3cc4c([nH]3)CCNC4=O)c2n1`, the figures for the IC50 in test [1] and in test [2] were 0.434 nM and 1.11 nM, respectively.
`Cn1c(NC(C)(C)C)nc2c(-c3cc4c([nH]3)CNC4=O)cccc2c1=O`: in test [2], the IC50 came to 0.193 nM.
With `Cc1nc2cccc(-c3cc4c([nH]3)CCNC4=O)c2nc1-c1c(F)cccc1Cl`, the IC50 in test [1] was determined as 6.04 nM.
On the same count and under the same terms, with `Cc1nc2cccc(-c3cc4c([nH]3)CCNC4=O)c2nc1N[C@H]1C[C@@H](N2CCOCC2)C1` the figure was 6 nM.
As to `Cc1nc2cccc(-c3cc4c([nH]3)CCNC4=O)c2nc1-c1cccnc1Cl`, the values for the IC50 in test [1] and in test [2] were 98.5 nM and 187 nM, respectively.
Regarding `Cc1nc2cccc(-c3cc4c([nH]3)CCNC4=O)c2nc1NC(C)(C)CCS(C)(=O)=O`, the results for the IC50 in test [1] and in test [2] were 232 nM and 98.6 nM, respectively.
Take `Cc1nc2cccc(-c3cc4c([nH]3)CCNC4=O)c2nc1N[C@H]1C[C@@H](NCC(F)F)C1`: the IC50 in test [1] and in test [2] was 2 nM throughout.
For `Cc1nc2cccc(-c3cc4c([nH]3)CCN/C4=N/O)c2nc1NC(C)(C)C`, the IC50 in test [1] worked out at 9 nM; in test [2], 12 nM.
As to `Nc1nc2cccc(-c3cc4c([nH]3)CCNC4=O)c2nc1Oc1ccccc1`, the IC50 was 2 nM in test [1] and 1.8 nM in test [2].
The corresponding values for `Cc1nc2cccc(-c3cc4c([nH]3)CCNC4=O)c2nc1-c1ccc(N)cc1Cl` are 10.3 nM and 33.4 nM.
Taken in the same sequence, the figures for `CC1(C)CCCN1c1cnc2cccc(-c3cc4c([nH]3)CCNC4=O)c2n1` were 0.3 nM and 0.8 nM.
For the compound `Cc1nc2cccc(-c3cc4c([nH]3)CCNC4=O)c2nc1-c1cnccc1Cl`, the IC50 in test [1] was determined as 50.7 nM.
In the case of `O=C1NCCc2[nH]c(-c3cccc4ccc(N[C@H]5CC[C@H](O)CC5)nc34)cc21`, the IC50 in test [3] came to 7 nM; in test [4], 57.2 nM.
On to `Cc1nc2cccc(-c3cc4c([nH]3)CCNC4=O)c2nc1NC(C)(C)C(N)=O`, for which the figures for the IC50 in test [1] and in test [2] were 6.2 nM and 22.7 nM, respectively.
In the case of `CC1(C)CCN1c1cnc2cccc(-c3cc4c([nH]3)CCNC4=O)c2n1`, the figures for the half-inhibitory concentration (IC50) in test [1] and in test [2] were 0.4 nM and 0.8 nM, respectively.
As to `Cc1nc2cccc(-c3cc4c(n3C)C(CO)NC4=O)c2nc1NC(C)(C)C` (racemic), the IC50 in test [1] worked out at 10.3 nM; in test [2] it was 7.8 nM.
Consider `Cc1nc2cccc(-c3cc4c([nH]3)C(CO)NC4=O)c2nc1NC(C)(C)C` (racemic), for which the IC50 was 2.32 nM in test [1] and 2.16 nM in test [2].
Turning to `Cc1nc2cccc(-c3cc4c([nH]3)CCNC4=O)c2nc1NC(C)C(C)C` (racemic), the IC50 was 1.2 nM in test [1] and 1.8 nM in test [2].

The term IC50 denotes the concentration needed to halve the response being measured.
